The text below walks through data of ChEMBL document CHEMBL1125532, “Synthesis and cholinergic properties of N-aryl-2-[[[5-[(dimethylamino)methyl]-2-furanyl]methyl]thio]ethylamino analogs of ranitidine” (J Med Chem, 1992).

In general, pIC50 refers to −log10 of the IC50, conventionally taken in molar units. The low end stands for a large IC50, the high end for a small IC50. One may read the pKi as the negative decadic logarithm of the Ki, by convention in mol/L. Read a high pKi as a low Ki.

Positions count from the first letter of the chain named. pIC50, pKi: −log10 of the molar value. The source made the active and inactive calls. The rule behind the calls is not given here. Bounds are passed on as bounds.

In assay [1] the target is Cholinesterases; ACHE & BCHE (Homo sapiens) (UniProt P06276+P22303). The experiment in a line: Ratio of IC50(BChE-I) to IC50(AChE-I). In kind it is protein assay.
Chain of Cholinesterases; ACHE & BCHE (Homo sapiens) (P06276 whole entry, looked up): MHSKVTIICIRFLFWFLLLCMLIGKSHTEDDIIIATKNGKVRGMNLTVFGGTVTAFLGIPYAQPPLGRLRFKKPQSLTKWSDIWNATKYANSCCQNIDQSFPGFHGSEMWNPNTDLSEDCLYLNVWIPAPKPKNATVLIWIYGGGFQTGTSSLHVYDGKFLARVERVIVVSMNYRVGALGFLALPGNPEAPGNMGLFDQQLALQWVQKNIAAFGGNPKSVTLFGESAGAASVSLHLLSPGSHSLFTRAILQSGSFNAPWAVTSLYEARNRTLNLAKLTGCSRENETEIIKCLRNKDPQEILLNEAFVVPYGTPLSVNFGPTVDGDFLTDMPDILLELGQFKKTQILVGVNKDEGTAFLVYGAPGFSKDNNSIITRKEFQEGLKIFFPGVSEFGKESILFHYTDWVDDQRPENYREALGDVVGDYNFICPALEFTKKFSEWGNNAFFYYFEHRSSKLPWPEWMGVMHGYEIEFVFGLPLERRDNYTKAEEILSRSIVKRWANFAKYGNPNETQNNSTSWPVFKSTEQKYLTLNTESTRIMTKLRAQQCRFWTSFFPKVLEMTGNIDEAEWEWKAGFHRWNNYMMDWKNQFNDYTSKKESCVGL
Chain of Cholinesterases; ACHE & BCHE (Homo sapiens) (P22303 whole entry, looked up): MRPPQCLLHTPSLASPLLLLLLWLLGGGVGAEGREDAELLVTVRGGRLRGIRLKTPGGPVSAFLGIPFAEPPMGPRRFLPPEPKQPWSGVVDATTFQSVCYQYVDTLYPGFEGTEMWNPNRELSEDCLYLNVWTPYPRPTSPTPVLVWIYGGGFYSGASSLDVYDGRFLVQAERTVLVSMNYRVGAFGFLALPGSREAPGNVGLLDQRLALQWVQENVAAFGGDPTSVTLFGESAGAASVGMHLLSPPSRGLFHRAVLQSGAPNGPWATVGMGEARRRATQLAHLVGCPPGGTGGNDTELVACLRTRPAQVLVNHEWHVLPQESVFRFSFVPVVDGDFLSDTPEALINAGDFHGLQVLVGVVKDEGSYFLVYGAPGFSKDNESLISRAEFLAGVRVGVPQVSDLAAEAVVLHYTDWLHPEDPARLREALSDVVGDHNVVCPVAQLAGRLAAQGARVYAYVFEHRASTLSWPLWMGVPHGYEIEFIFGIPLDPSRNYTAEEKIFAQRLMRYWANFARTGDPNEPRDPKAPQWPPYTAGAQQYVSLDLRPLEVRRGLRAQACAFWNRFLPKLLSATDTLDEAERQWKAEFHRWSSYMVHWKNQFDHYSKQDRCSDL
The target in assay [2] is T1, Acetylcholinesterase (Homo sapiens, UniProt P22303).
T1 sequence (P22303 whole entry): as the sequence (P22303 whole entry, looked up) above
Description: In vitro inhibition of human acetylcholinesterase.
For assay [3], the target named is T2, Muscarinic acetylcholine receptor M2 (Rattus norvegicus, UniProt P10980).
T2 sequence (P10980 whole entry): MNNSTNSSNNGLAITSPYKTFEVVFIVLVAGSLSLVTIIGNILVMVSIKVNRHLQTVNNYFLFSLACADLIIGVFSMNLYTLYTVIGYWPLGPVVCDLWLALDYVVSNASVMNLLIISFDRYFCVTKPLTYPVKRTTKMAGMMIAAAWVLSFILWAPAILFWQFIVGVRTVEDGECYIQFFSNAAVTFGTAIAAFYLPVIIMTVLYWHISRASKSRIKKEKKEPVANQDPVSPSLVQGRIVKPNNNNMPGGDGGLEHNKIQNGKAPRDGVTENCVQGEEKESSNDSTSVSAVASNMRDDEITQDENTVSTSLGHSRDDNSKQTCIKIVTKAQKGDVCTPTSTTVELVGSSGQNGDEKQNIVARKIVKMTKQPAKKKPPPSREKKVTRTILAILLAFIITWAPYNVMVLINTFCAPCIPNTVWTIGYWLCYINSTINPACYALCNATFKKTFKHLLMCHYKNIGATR
Description: Inhibition of [3H]N-methylscopolamine to rat muscarinic acetylcholine receptor M2 from heart tissue

Assay [4] deals with Cholinesterase (Homo sapiens, UniProt P06276).
Chain of Cholinesterase (P06276 whole entry): as the sequence (P06276 whole entry, looked up) above
Description: In vitro inhibition of human butryl cholinesterase.
In assay [5] the target is T3, Muscarinic acetylcholine receptor M1 (Mus musculus, UniProt P12657).
T3 sequence (P12657 whole entry): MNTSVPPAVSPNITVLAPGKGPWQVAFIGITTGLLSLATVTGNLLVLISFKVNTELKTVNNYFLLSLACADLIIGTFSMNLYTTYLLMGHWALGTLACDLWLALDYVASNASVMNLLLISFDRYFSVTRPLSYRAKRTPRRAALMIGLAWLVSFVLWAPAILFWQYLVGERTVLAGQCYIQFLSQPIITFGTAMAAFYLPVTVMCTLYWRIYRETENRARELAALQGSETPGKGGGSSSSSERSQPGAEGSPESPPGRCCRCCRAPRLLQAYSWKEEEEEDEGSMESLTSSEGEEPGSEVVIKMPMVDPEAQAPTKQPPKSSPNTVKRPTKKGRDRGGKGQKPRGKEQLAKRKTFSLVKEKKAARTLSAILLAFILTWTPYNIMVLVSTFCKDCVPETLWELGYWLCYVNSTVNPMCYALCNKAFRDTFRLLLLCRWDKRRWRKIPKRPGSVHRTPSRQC
Nature of the assay: biochemical.
Description: Inhibition of [3H]pirenzepine binding to mouse muscarinic acetylcholine receptor M1 from cerebral cortex

The species named for assay [6] is Rattus norvegicus. Nature of the assay: Ratio of IC50 (muscarinic acetylcholine receptor M2) to IC50 (muscarinic acetylcholine receptor M1).
For assay [7], the species on record is Rattus norvegicus. The experiment in a line: Concentration required to potentiate the contraction of isolated rat ileum produced by 1 x 10 e -7 M Ach by 20 %; inactive. In kind it is functional.
The target of assay [8] is T2, Muscarinic acetylcholine receptor M2. The experiment in a line: Binding affinity against rat muscarinic acetylcholine receptor M2 using heart tissue and [3H]N-methylscopolamine.
Assay [9] is filed under the species Rattus norvegicus.
The target in assay [10] is T4, Muscarinic acetylcholine receptor M2 (Mus musculus, UniProt Q9ERZ4).
T4 sequence (Q9ERZ4 whole entry): T2 sequence (P10980 whole entry) with V270G, R316K, K321R, A331T, V336A
The experiment in a line: biochemical.
Description: Ability to displace [3H]methylscopolamine ([3H]NMS) from mouse cerebral cortex

For assay [11], the target named is T4, Muscarinic acetylcholine receptor M2. Nature of the assay: biochemical. This is another data set of the same source.
The test system of assay [12] is Mus musculus. The experiment in a line: Effect on brain acetylcholine concentration in mice after intraperitoneal administration of 40% lethal dose (68 mg/kg. In kind it is functional.
The subject of assay [13] is Mus musculus. The experiment in a line: Effect on brain acetylcholine concentration in mice after intraperitoneal administration of 60% lethal dose (102 mg/kg). In kind it is functional.
In assay [14] the test system is Mus musculus. Nature of the assay: Effect on brain acetylcholine concentration in mice after intraperitoneal administration of 80% lethal dose (170 mg/kg). In kind it is functional.
The target in assay [15] is T1, Acetylcholinesterase. The experiment in a line: In vitro acetyl cholinesterase (AChE-I) inhibitory activity to determine its ability to reverse the cholinergic deficit characteristic of AD.
The test system of assay [16] is Mus musculus. The experiment in a line: Effect on brain acetylcholine concentration in mice after intraperitoneal administration of 60% lethal dose (66 mg/kg). In kind it is functional.
For assay [17], the system named is Mus musculus. The experiment in a line: Effect on brain acetylcholine concentration in mice after intraperitoneal administration of 80% lethal dose (80 mg/kg)(***: p <= 0.001). In kind it is functional.

In the case of `CN(C)Cc1ccc(CSCCNc2cc(Nc3ccccc3C#N)c([N+](=O)[O-])cc2[N+](=O)[O-])o1`, the figures for the Ratio in assay [1] and in [6] were 2.8 and 1.1, respectively. In addition, the pIC50 in assay [2] was 6.20; in assay [3], 5.43; in [4], 5.74; in [5] it was 5.48. Further, in assay [7], the Ileal activity result was “inactive”.
For the compound `CNc1cc(NCCSCc2ccc(CN(C)C)o2)c([N+](=O)[O-])cc1[N+](=O)[O-]`, the Ratio amounted to 21 in assay [1] and 7.2 in assay [6]. In addition, the pIC50 in assay [2] was 6.80; in [4], 5.48; in assay [5] it was 6.37; in [8] it was 5.51. The Ileal activity entry in assay [7] is “inactive”.
Regarding `CN(C)Cc1ccc(CSCCNc2cc(NCc3ccccc3)c([N+](=O)[O-])cc2[N+](=O)[O-])o1`, the pIC50 was 5.48 in [3] and 5.70 in assay [5]. In addition, the Ratio in assay [6] amounted to 1.7. In [7], the Ileal activity entry is “inactive”.
In the case of `CN(C)Cc1ccc(CSCCNc2cc(NCc3ccccn3)c([N+](=O)[O-])cc2[N+](=O)[O-])o1`, the Ratio in [1] was 4.1; in [6], 1.6. The pIC50 in assay [2] is 5.89; in assay [3] it was 5.62; in assay [4], 5.28; in assay [5], 5.82. Moreover, in assay [9], the Ileal activity was <1 µM.
For the compound `O=C1CCCN1CC#CCN1CCCC1` [OXOTREMORINE], the pKi in assay [10] was 5.82; in [11], 8.77.
For the compound `CN(C)CCNc1cc(NCCSCc2ccc(CN(C)C)o2)c([N+](=O)[O-])cc1[N+](=O)[O-]`, the Ratio worked out at 2.8 in assay [1] and 0.57 in assay [6]. For the same compound, the negative-log IC50 (pIC50) in [2] was 6.28; in assay [3] it was 6.42; in assay [4], 5.85; in assay [5], 6.17. In [9], the Ileal activity was <0.01 µM.
Regarding `CN(C)Cc1ccc(CSCCNc2cc(NCc3cccnc3)c([N+](=O)[O-])cc2[N+](=O)[O-])o1`, the Ratio was determined as 19 in assay [1] and 1.1 in assay [6]. Further, the pIC50 in assay [2] was 6.51; in assay [3], 6.40; in [4], 5.21; in [5] it was 6.42. Also, in assay [7], the Ileal activity result was “inactive”.
Take `CN(C)Cc1ccc(CSCCNc2cc(Nc3ccccc3)c([N+](=O)[O-])cc2[N+](=O)[O-])o1`: the Ratio in assay [1] was 2.5; in assay [6], 1. Moreover, the pIC50 in assay [2] is 6.19; in assay [3], 5.19; in assay [4], 5.80; in assay [5], 5.19. For the same compound, the Ileal activity entry in assay [7] was “inactive”.
As to `CN(C)Cc1ccc(CSCCNc2ccc(F)cc2[N+](=O)[O-])o1`, the Ratio is 5.1 in assay [1] and 0.6 in assay [6]. Besides, the pIC50 is 6.19 in assay [2], 5.62 in [3], 5.48 in assay [4] and 5.40 in [5]. Besides, the Ileal activity result in assay [7] was “inactive”.
Compound `CCCCCNc1cc(NCCSCc2ccc(CN(C)C)o2)c([N+](=O)[O-])cc1[N+](=O)[O-]` had a pIC50 in assay [2] of 5.92.
As to `CC(C)=NNc1cc(NCCSCc2ccc(CN(C)C)o2)c([N+](=O)[O-])cc1[N+](=O)[O-]`, the Ratio in [1] turned out to be 19; in assay [6] it was 1.1. The pIC50 in assay [2] was 6.36; in assay [3], 5.46; in assay [4], 5.08; in assay [5], 5.51. Further, in assay [9], the Ileal activity was <0.1 µM.
In the case of `CN(C)Cc1ccc(CSCCNc2cc(Nc3ccc(F)cc3)c([N+](=O)[O-])cc2[N+](=O)[O-])o1`, the Ratio in [1] turned out to be 1.6; in [6] it was 2.1. Moreover, the pIC50 in assay [2] was 6.17; in assay [3], 5.36; in [4], 5.96; in [5] it was 5.68. For the same compound, in assay [9], the Ileal activity was <0.01 µM.
Regarding `CNC(=O)Oc1ccc2c(c1)[C@]1(C)CCN(C)[C@@H]1N2C` [PHYSOSTIGMINE], the Ileal activity in assay [9] was <0.005 µM. In [3], this compound showed a pIC50 of 3.80.
As to `CN(C)Cc1ccc(CSCCNc2cc(NN)c([N+](=O)[O-])cc2[N+](=O)[O-])o1`, the pKi in [10] is 4.92; in assay [11], 5.96. In addition, the “% of control” value in [12] is recorded as 110%; in [13], 128.8%; in assay [14], 126.8%. The Ratio in assay [1] worked out at 67; in assay [6], 1.2. Also, the pIC50 in [2] was 7.12; in assay [3] it was 5.33; in [4], 5.29; in assay [5] it was 5.42. Also, the Ileal activity in [9] is <0.1 µM.
Take `CCCNc1cc(NCCSCc2ccc(CN(C)C)o2)c([N+](=O)[O-])cc1[N+](=O)[O-]`: the Ratio in assay [1] came to 15; in assay [6] it was 1.1. In addition, the pIC50 was 6.59 in assay [2], 5.42 in assay [4], 5.49 in [5] and 5.46 in assay [8]. For the same compound, the Ileal activity in assay [9] was <1 µM.
For the compound `CN(C)Cc1ccc(CSCCNc2cc(Nc3ncccc3[N+](=O)[O-])c([N+](=O)[O-])cc2[N+](=O)[O-])o1`, the pIC50 is 6.19 in assay [2] and 4.74 in [4].
Regarding `CN(C)Cc1ccc(CSCCNc2cccc(F)c2C#N)o1`, the pIC50 in [15] was 5.68.
`CN(C)Cc1ccc(CSCCNc2cc(Oc3ccc([N+](=O)[O-])cc3)c([N+](=O)[O-])cc2[N+](=O)[O-])o1`: the pIC50 in assay [2] was 6.57; in [4], 5.96.
Consider `CN(C)Cc1ccc(CSCCNc2cc(F)c([N+](=O)[O-])cc2[N+](=O)[O-])o1`, for which the Ratio in assay [1] stood at 33; in [6], 3.9. For the same compound, the negative logarithm of the IC50 (pIC50) is 6.92 in [2], 5.15 in [3], 5.42 in [4] and 5.74 in [5]. Further, in assay [9], the Ileal activity is <0.01 µM.
Take `CN(C)Cc1ccc(CSCCNc2cc(NCCCN3CCOCC3)c([N+](=O)[O-])cc2[N+](=O)[O-])o1`: the Ratio stood at 13 in assay [1] and 0.57 in assay [6]. For the same compound, the pIC50 in [2] is 6.43; in assay [3], 6.52; in assay [4], 5.33; in [5], 6.28. In addition, the Ileal activity in [9] was <0.1 µM.
For the compound `CN(C)Cc1ccc(CSCCNc2cc(N)c([N+](=O)[O-])cc2[N+](=O)[O-])o1`, the pKi in assay [10] was 5.02; in [11] it was 6.34. Further, the Ratio in assay [1] stood at 28; in assay [6], 1.8. Also, the pIC50 in assay [2] was 7.08; in assay [4], 5.62; in assay [5], 5.42; in assay [8], 5.17. Also, the Ileal activity in assay [9] was <0.1 µM. For the same compound, the “% of control” value in assay [16] is reported as 126.8%; in [17], 153.2%.
